From patent US11910794B2, “Solutions and methods for long-term pollen storage” (Monsanto Technology LLC, priority 2021, dated 2024)
Read-outs that look alike come from different tables or passages of the source.

Legend:
corn pollen = assay: Pollen toxicity: germination of corn pollen after incubation in pollen storage solutions; type: cell-based, corn (Zea mays); settings: 1.0M sucrose, 10 mM MES, 0.5M, 1.0M or 1.5M cryoprotectant; 15 minutes at room temperature or 4° C.; germination plates; FIG. 1
Method: Pollen storage solutions comprising 1.0M sucrose, 10 mM MES, and 0.5M, 1.0M, or 1.5M of cryoprotectant were evaluated for pollen toxicity. Briefly, corn pollen was suspended in each pollen storage solution at either room temperature or 4° C. and incubated for 15 minutes. The pollen storage solutions were applied to standard germination plates using an airbrush and images of the plates were obtained to evaluate germination. A 1.0M solution of sucrose was used as the positive control.

pollen [1] = settings: not told
Method: (§1) As used herein the term “impermeable” refers to a state where an isotonic solution of the solute when first mixed with pollen produces less than about 10% pollen lysis over the first 4 hours that the pollen is in contact with the solution. As used herein the term “permeable” refers to a state where an isotonic solution of the cryoprotectant when first mixed with pollen produces greater than 50% pollen lysis over the first 4 hours that the pollen is in contact with the solution.
(§2) The pollen permeability of numerous cryoprotectants was evaluated to initially identify suitable candidates for use in the pollen storage solution. Suitable cryoprotectants will be permeable to the pollen in the solution. Suitable solutes will maintain the tonicity of the pollen storage solution at a concentration between about 0.5M and about 3.0M. […] Pollen storage solutions comprising 1.0M sucrose, 10 mM MES, and 0.5M, 1.0M, or 1.5M of cryoprotectant were evaluated for pollen toxicity.

pollen [2] = assay: Pollen permeability of cryoprotectants; settings: permeability test of cryoprotectants
Method: as §1, §2

| pollen permeability of cryoprotectant (pollen [1]) | SMILES | germination rates (corn pollen) | pollen permeability of cryoprotectant (pollen [2]) |
| --- | --- | --- | --- |
| among the most permeable | C[S+](C)[O-] [DMSO, dimethyl sulfoxide] | highest germination rates | – |
| – | OCCO [ethylene glycol] | highest germination rates | among the most permeable |
